Experimental data: article PMC9169360, “Molecular Imaging-Derived Biomarker of Cardiac Nerve Integrity — Introducing High NET Affinity PET Probe ^18F-AF78” (Theranostics, 2022)
Where two headings read alike, the source gives them in different places.

Experiments:
[1] = biological target: T1, norepinephrine transporter (NET) (Homo sapiens, UniProt P23975); experiment: Competitive cell uptake assay against 3H-norepinephrine in SK-N-SH human neuroblastoma cells; format: cell-based
T1 construct: cells naturally expressing NET; host or cells: SK-N-SH human neuroblastoma cells
T1 sequence (P23975 whole entry): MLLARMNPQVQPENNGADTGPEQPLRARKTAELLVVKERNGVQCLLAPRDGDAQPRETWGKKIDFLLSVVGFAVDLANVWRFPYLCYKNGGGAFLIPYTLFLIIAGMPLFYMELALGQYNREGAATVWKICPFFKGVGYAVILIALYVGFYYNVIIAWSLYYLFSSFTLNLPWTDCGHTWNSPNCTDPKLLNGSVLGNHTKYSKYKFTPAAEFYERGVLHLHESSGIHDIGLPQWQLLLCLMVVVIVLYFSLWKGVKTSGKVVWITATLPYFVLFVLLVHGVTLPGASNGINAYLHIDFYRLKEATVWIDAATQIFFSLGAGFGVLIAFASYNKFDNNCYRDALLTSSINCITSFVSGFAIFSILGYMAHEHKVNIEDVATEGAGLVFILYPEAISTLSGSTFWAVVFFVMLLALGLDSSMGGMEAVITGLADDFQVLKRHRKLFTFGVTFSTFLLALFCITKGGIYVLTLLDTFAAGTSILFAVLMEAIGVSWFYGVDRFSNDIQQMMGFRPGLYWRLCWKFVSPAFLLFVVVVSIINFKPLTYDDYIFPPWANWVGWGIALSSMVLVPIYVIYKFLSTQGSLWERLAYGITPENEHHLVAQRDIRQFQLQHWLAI
Excerpt: SK-N-SH (human neuroblastoma cell line) cells naturally expressing NET were cultivated according to the instructions from the supplier (Sigma-Aldrich Chemie GmbH, Taufkirchen, Germany). […] Cell lysates were collected and measured in a liquid scintillation analyzer.

[2] = parameters: method as in PMID 28322043; settings: rhesus macaque monkeys, not before 90 min after radiotracer injection; cited from earlier work
[3] = biological target: T2, norepinephrine transporter (NET) (Oryctolagus cuniculus, UniProt G1TDF9); experiment: PET imaging and cardiac uptake in rabbits with or without DMI blocking; format: in vivo, New Zealand white rabbits; settings: DMI 1.5 mg/kg 10 min before tracer, SUV, n = 5
T2 construct: from tissue; host or cells: heart of living New Zealand white rabbits (in vivo PET, gamma counting)
T2 sequence (G1TDF9 1-617): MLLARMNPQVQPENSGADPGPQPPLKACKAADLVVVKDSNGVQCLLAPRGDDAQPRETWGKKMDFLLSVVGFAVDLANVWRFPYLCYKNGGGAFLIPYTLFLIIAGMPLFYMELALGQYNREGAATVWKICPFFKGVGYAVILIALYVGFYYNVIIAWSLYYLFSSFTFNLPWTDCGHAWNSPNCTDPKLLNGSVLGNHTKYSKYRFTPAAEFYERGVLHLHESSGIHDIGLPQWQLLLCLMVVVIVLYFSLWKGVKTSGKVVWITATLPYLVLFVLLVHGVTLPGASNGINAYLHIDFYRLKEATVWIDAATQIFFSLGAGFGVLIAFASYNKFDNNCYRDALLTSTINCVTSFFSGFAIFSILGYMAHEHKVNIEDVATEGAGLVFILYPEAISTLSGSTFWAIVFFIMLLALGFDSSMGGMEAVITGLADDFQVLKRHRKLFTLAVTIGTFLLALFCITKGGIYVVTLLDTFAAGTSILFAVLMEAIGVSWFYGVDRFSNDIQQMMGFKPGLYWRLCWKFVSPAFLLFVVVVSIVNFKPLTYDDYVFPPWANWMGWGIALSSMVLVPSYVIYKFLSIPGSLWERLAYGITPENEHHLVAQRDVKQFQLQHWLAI
Description: (§1) Male Wistar rats (n = 4, weighing 250-400 g) and New Zealand white rabbits (n = 5, weighing 3.2-3.6 kg) were used for cardiac uptake studies. Anesthesia was induced and maintained during the experiment by 2% isoflurane. Large animal PET studies were performed on cynomolgus monkeys (n = 4, weighing 3.9-4.2 kg). Induction of anesthesia in NHPs was conducted by intramuscular injection of ketamine (1.5 mg/kg) and xylazine (0.6 mg/kg) to allow the preparation and handling of the animals. After a tracheal cannula was inserted, 1.5% sevoflurane (SEVOFLURANE Inhalation Solution, Pfizer Japan Inc., Tokyo, Japan) vaporized with 100% oxygen was inhaled, and the tidal volume and respiratory rate of the ventilator were monitored and kept in the normal range throughout the imaging sessions with an anesthesia workstation (Apollo®, Drägerwerk AG & Co. KGaA, Lübeck, Germany).
^18F-AF78 (3-4 MBq) and ^123I-MIBG (approximately 2.5 MBq) were injected into rabbits maintained under anesthesia via the marginal ear vein in a single dose. The NET blocker DMI (1.5 mg/kg) was injected 10 min before radiotracer administration in the blocking study. A 10-min dynamic scan was initiated immediately after the radiotracer injection. The animals were euthanized immediately after the scan, and the organs of interest were harvested and measured in a gamma counter to calculate biodistribution. […]

[4] = biological target: T3, norepinephrine transporter (NET) (Rattus norvegicus, UniProt Q63380); experiment: PET imaging and biodistribution in rats with or without PhB blocking; format: in vivo, Wistar rats
T3 construct: from tissue; host or cells: heart of living Wistar rats (in vivo PET, ex vivo tissue counting)
T3 sequence (Q63380 1-617): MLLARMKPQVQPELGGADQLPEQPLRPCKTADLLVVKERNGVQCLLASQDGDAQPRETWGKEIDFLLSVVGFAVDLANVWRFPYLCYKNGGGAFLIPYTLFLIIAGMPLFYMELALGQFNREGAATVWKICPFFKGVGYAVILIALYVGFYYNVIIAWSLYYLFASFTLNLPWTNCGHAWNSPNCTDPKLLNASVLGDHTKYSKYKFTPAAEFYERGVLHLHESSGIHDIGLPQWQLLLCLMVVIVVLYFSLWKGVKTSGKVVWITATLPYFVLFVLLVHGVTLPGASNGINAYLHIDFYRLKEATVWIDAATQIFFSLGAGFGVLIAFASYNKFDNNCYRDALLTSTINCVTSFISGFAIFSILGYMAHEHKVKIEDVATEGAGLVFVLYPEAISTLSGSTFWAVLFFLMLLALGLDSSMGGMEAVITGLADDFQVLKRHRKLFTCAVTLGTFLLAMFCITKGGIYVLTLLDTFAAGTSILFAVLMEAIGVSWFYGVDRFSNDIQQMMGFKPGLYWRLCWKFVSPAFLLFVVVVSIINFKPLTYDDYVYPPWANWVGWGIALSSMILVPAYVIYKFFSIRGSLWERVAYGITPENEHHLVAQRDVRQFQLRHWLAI
Description: as §1
A small-animal PET system (microPET FOCUS 120, Siemens, Erlangen, Germany) was used for the rat studies. […] The organ-to-blood ratios were calculated following weight and decay correction of tissue counts.
PET imaging for rats, rabbits and NHPs was performed from the chest to the upper abdomen, including the heart, lungs, liver and part of the intestines. The reconstructed images were analyzed using AMIDE imaging software (version 1.0.1). […]

[5] = Dynamic PET imaging and biodistribution of the radiotracer in healthy nonhuman primates; format: in vivo, cynomolgus monkeys; settings: NHP controls
Description: as §1
NHPs were maintained under anesthesia during imaging and were studied with a PET scanner (PCA-2000A, Toshiba Medical Systems Corporation, Tochigi, Japan). After a 5-min transmission scan and a bolus intravenous (i.v.) injection of the radiotracer ^18F-AF78 (approximately 20 MBq) via the saphenous vein, a 60-min dynamic PET scan (10 s × 12, 30 s × 6, and 300 s × 11) was initiated. For the blocking study, DMI was injected 10 min before radiotracer administration, after which the PET scan commenced immediately (n = 4). For the DMI chase study, DMI (1 mg/kg, n = 4) was injected 10 min after radiotracer administration, while the PET scan was initiated simultaneously with radiotracer administration. The catecholamine releasing stimulator tyramine (TYR) was also used in a chase protocol, with 50 µg/kg each injection (n = 4) injected intermittently (5 times, 10-min intervals) after radiotracer administration. The radiotracers ^18F-AF78 and ^123I-MIBG were formulated in saline for the animal studies. Control animals received normal saline. The inhibitors PhB, DMI and TYR were first dissolved in a minimum amount of DMSO and diluted with saline for administration with a final concentration of DMSO lower than 10%. The experimental timeline is provided in the supplementary material.
(§2) PET imaging for rats, rabbits and NHPs was performed from the chest to the upper abdomen, including the heart, lungs, liver and part of the intestines. The reconstructed images were analyzed using AMIDE imaging software (version 1.0.1). For kinetic studies in rats and NHPs, the tissue uptake was determined as standardized uptake values (SUVs), from which time-activity curves of different organs, e.g., heart, blood, lung and liver, were generated with transmission computed tomography images for topographic localization.

[6] = system: norepinephrine transporter (NET); experiment: PET kinetic studies in nonhuman primates with DMI blocking, DMI chase and tyramine chase; format: in vivo, cynomolgus monkeys; settings: NHP heart, 60 min
Description: as §1
NHPs were maintained under anesthesia during imaging and were studied with a PET scanner (PCA-2000A, Toshiba Medical Systems Corporation, Tochigi, Japan). After a 5-min transmission scan and a bolus intravenous (i.v.) injection of the radiotracer ^18F-AF78 (approximately 20 MBq) via the saphenous vein, a 60-min dynamic PET scan (10 s × 12, 30 s × 6, and 300 s × 11) was initiated. For the blocking study, DMI was injected 10 min before radiotracer administration, after which the PET scan commenced immediately (n = 4). For the DMI chase study, DMI (1 mg/kg, n = 4) was injected 10 min after radiotracer administration, while the PET scan was initiated simultaneously with radiotracer administration. […]
as §2

[7] = SK-N-SH cells, 60 min, 37 °C, mean ± SD, n = 4, read-out: IC50, competitive cell uptake affinity against 3H-NE

Q: With NCCc1cc(O)c(O)cc1F [6F-DA, 6-fluorodopamine] as the compound, how does the IC50 [1] read?
A: The IC50 was 1200 ± 330 nM.

Q: With N=C(N)NCCc1ccc(F)c(O)c1 [4F-MHPG, 4-fluoro-3-hydroxyphenethylguanidine] as the compound, how does the heart-to-liver ratio [2] read?
A: Its heart-to-liver ratio is 2.2 ± 0.8.

Q: What about the IC50 [1, 7] of the same compound?
A: Its IC50 is 2780 ± 1220 nM.

Q: Which results are given for N=C(N)NCc1cccc(I)c1 [MIBG, metaiodobenzylguanidine, reference compound]?
A: IC50 [1, 7]: 1750 ± 470 nM; cardiac uptake in the DMI pretreatment group [3]: reduced significantly

Q: For N=C(N)NCc1ccc(OCCCF)c(Br)c1 [FBBG, flubrobenguane], which IC50 [1, 7] is on record?
A: The IC50 was 2280 ± 1050 nM.

Q: With CN[C@@H](C)[C@H](O)c1cccc(O)c1 [HED, metahydroxyephedrine] as the compound, how does the IC50 [1] read?
A: Its IC50 is 390 ± 110 nM.

Q: For N=C(N)NCCc1ccc(O)c(F)c1 [3F-PHPG, 3-fluoro-4-hydroxyphenethylguanidine], which heart-to-liver ratio [2] is on record?
A: Its heart-to-liver ratio is 2.5 ± 0.3.

Q: What about the IC50 [1, 7] of the same compound?
A: The IC50 was 780 ± 60 nM.

Q: Which “cardiac uptake upon PhB pretreatment” value ([4]; PhB 50 mg/kg 10 min before tracer, time-activity curves) does the source give for N=C(N)NCCc1ccc(OCCCF)c(F)c1 [AF78, 1-(3-fluoro-4-(3-fluoropropoxy)phenethyl)guanidine] here?
A: The value was “decreased rapidly”.

Q: What about the “organ-to-blood ratios, early (10 min) versus late (60 min) phase” value ([4]; biodistribution study, controls) of the same compound?
A: The value was “unchanged”.

Q: What about the heart-to-blood pool ratio ([5]; 5 min postinjection) of the same compound?
A: Its heart-to-blood pool ratio is 2.03 ± 0.53.

Q: And the heart-to-liver ratio ([5]; 5 min postinjection)?
A: Its heart-to-liver ratio is 0.38 ± 0.29.

Q: What about the heart-to-liver ratio ([5]; 30 min postinjection) of the same compound?
A: The heart-to-liver ratio was 0.95 ± 0.20.

Q: And the “absolute SUV in the blood pool” value ([5]; 60 min postinjection)?
A: The value was 0.72 ± 0.34 SUV.

Q: What about the “absolute SUV in the liver” value ([5]; 60 min postinjection) of the same compound?
A: The value was 0.91 ± 0.47 SUV.

Q: What about the heart-to-blood pool ratio ([5]; 60 min postinjection) of the same compound?
A: The heart-to-blood pool ratio was 1.82 ± 0.71.

Q: What about the heart-to-liver ratio ([5]; 60 min postinjection) of the same compound?
A: The heart-to-liver ratio was 1.60 ± 0.38.

Q: What about the “cardiac SUV” value ([5]; heart, 5 min postinjection) of the same compound?
A: The value was 1.74 ± 0.24 SUV.

Q: And the “cardiac uptake, mean SUV” value ([5]; heart, 60 min postinjection)?
A: Its value is 1.46 ± 0.18 SUV.

Q: And the IC50 [1, 7]?
A: The IC50 was 420 ± 140 nM.

Q: What about the “fold higher affinity of AF78 relative to MIBG” value ([1]; ratio of IC50 values, SK-N-SH cells) of the same compound?
A: The value was 4.2 fold.

Q: And the “cardiac mean SUV after DMI chase” value ([6]; DMI 1 mg/kg 10 min after tracer)?
A: The value was 1.40 ± 0.07 SUV.

Q: And the “cardiac mean SUV after DMI blocking” value ([6]; DMI injected 10 min before tracer)?
A: Its value is 0.45 ± 0.05 SUV.

Q: What about the “cardiac mean SUV after intermittent TYR chase” value ([6]; tyramine 50 µg/kg 5 times at 10-min intervals) of the same compound?
A: Its value is 0.92 ± 0.20 SUV.

Q: And the “cardiac uptake in the DMI pretreatment group” value [3]?
A: The value was “reduced significantly”.
